Read-outs that look alike come from different tables or passages of the source.
What was measured:
[1] = tested on: Human Breast Cancer Cells (MCF-7); assay: Cell growth inhibition by direct cell counting, MCF-7; assay type: cell-based; details: read-out: IG50 MCF-7
Protocol: (§1) Cells were taken out carefully from liquid nitrogen (Frozen pipes), and the cell freezing medium was thawed rapidly in water bath at 37° C. in order to rapidly pass through the temperature range of 0 to 5° C. within which the cell is easily damaged. Cell suspension was sucked with pipette gun and put it into centrifugal tubes under sterile condition, then was centrifuged for 3 min at 1300 r/min. The supernatant was gently discarded, and then added with a fresh medium to pipette and mix the cells. Finally, the cells were transferred into culture flasks, and cultured in a carbon dioxide incubator. The medium was changed once after 24 h.
(§2) After resuscitation, the cells were passed for 2-3 generations till they became stable, then they were used for the experiments. Each passage was based on the standard that all cells were spread over the bottoms of culture flasks.
(§3) Cell suspensions of a certain density (5×10^4 cells/mL) were plated at 24-well plate, 2 mL/well. Different concentration of drugs were added thereto, and incubated or some time. Then, cells were counted under the microscope. The ratio of total number of cells in test group to the total number of cells in control group is the cell growth inhibition rate under the concentration condition. The total number of cells in cell suspension, which were treated by drugs, could be counted by blood count board. Inhibition rate was calculated using the formula: […]
(§4) According to cell growth inhibition rate of each concentration of drugs, half inhibitory concentration could be calculated. (IG50 is the drug concentration, when cell growth inhibition rate was 50%.)
(§5) 7) The Results of the Growth Inhibitory Activity of the Compounds on Human Breast Cancer Cells (MCF-7) and Human Multidrug Resistant Breast Cancer Cells (MCF-7/Adr) were Listed in Table 3.

[2] = tested on: Human Multidrug Resistant Breast Cancer Cells (MCF-7/Adr); assay: Cell growth inhibition by direct cell counting, MCF-7/Adr; assay type: cell-based; details: read-out: IG50 MCF-7/Adr
Protocol: as §1, §2, §3, §4, §5

[3] = MCF-7/Adr multidrug resistant cells

Compound	IC50 ([1]; MCF-7 cells) [nM]	IC50 [2, 3] [nM]	IC50 [1] [nM]	IC50 [2] [nM]
CC1CCC2C(C)[C@@H](Oc3ccc(Cn4ccnn4)cc3)OC3OC4(C)CCC1C32OO4 (stereo partly drawn) [Example 3, (10S)—O-[4-((1,2,3-triazol-1-yl)methyl)phenyl]-dihydroartemisinin]	1320	718	–	–
C[C@H]1[C@@H](Oc2ccc(Cn3cncn3)cc2)O[C@@H]2O[C@@]3(C)CC[C@H]4[C@H](C)CC[C@@H]1[C@@]24OO3 [Example 4, (10S)—O-[4-((1,2,4-triazol-1-yl)methyl)phenyl]-dihydroartemisinin]	1620	476	–	–
COc1ccccc1N1CCN(Cc2ccc(O[C@H]3O[C@@H]4O[C@@]5(C)CC[C@H]6[C@H](C)CC[C@@H]([C@H]3C)[C@@]46OO5)cc2)CC1 [Example 11, (10)-O-[4-[(4-(2-methoxyphenyl)piperazin-1-yl)methyl]phenyl](10S)-dihydroartemisinin]	475	456	–	–
C[C@H]1[C@@H](Oc2ccc(CN3CCN(C)CC3)cc2)O[C@@H]2O[C@@]3(C)CC[C@H]4[C@H](C)CC[C@@H]1[C@@]24OO3 [Example 12, (10S)—O-[4-((4-methylpiperazin-1-yl)methyl)phenyl]-dihydroartemisinin]	1050	190	–	–
C[C@H]1[C@@H](Oc2ccc(CN3CCN(c4ccc(F)cc4)CC3)cc2)O[C@@H]2O[C@@]3(C)CC[C@H]4[C@H](C)CC[C@@H]1[C@@]24OO3 [Example 13]	267	330	–	–
C[C@H]1[C@@H](Oc2ccc(CN3CCN(c4ccccn4)CC3)cc2)O[C@@H]2O[C@@]3(C)CC[C@H]4[C@H](C)CC[C@@H]1[C@@]24OO3 [Example 14, 10-O-[4-[(4-(2-pyridyl)piperazin-1-yl)methyl]phenyl]-(10S)-dihydroartemisinin]	1280	1380	–	–
CC1CCC2C(C)[C@@H](Oc3ccc(CN4CCN(c5ncccn5)CC4)cc3)OC3OC4(C)CCC1C32OO4 (stereo partly drawn) [Example 15, 10-O-[4-[(4-(2-pyrimidinyl)piperazin-1-yl)methyl]phenyl]-(10S)-dihydroartemisinin]	443	1660	–	–
C[C@H]1[C@@H](Oc2cccc(CN3CCN(c4ccccc4)CC3)c2)O[C@@H]2O[C@@]3(C)CC[C@H]4[C@H](C)CC[C@@H]1[C@@]24OO3 [Example 18, 10-O-[3-[(4-phenylpiperazin-1-yl)methyl]phenyl]-(10S)-dihydroartemisinin]	690	355	–	–
CC1CCC2C(C)[C@@H](Oc3cccc(CN4CCN(Cc5ccccc5)CC4)c3)OC3OC4(C)CCC1C32OO4 (stereo partly shown) [Example 19]	1190	1090	–	–
CC1CCC2C(C)[C@@H](Oc3ccc(/C=C/C(=O)N4CCOCC4)cc3)OC3OC4(C)CCC1C32OO4 (stereo partly drawn) [Example 21, (10S)—O-{4-[3-oxo-3-(morpholin-4-yl)-1-(E)-propen-1-yl]phenyl}-dihydroartemisinin]	241	–	–	–
CC1CCC2C(C)[C@@H](Oc3ccc(/C=C/C(=O)N4CCCCC4)cc3)OC3OC4(C)CCC1C32OO4 (stereo partly drawn) [Example 22, (10S)—O-{4-[3-oxo-3-(piperidin-1-yl)-1-(E)-propen-1-yl]phenyl}-dihydroartemisinin]	6.07	–	–	–
C[C@H]1[C@@H](Oc2ccc(/C=C/C(=O)N3CCC(N4CCCCC4)CC3)cc2)O[C@@H]2O[C@@]3(C)CC[C@H]4[C@H](C)CC[C@@H]1[C@@]24OO3 [Example 23]	586	–	–	–
COc1ccccc1N1CCN(C(=O)/C=C/c2ccc(O[C@H]3O[C@@H]4O[C@@]5(C)CC[C@H]6[C@H](C)CC[C@@H]([C@H]3C)[C@@]46OO5)cc2)CC1 [Example 27, (10S)—O-{4-[3-oxo-3-(4-(2-methoxyphenyl)piperazin-1-yl)-1-(E)-propen-1-yl]phenyl}-dihydroartemisinin]	322	–	–	–
CC1CCC2C(C)[C@@H](Oc3ccc(/C=C/C(=O)N4CCN(c5cccc(C(F)(F)F)c5)CC4)cc3)OC3OC4(C)CCC1C32OO4 (stereo partly drawn) [Example 28, (10S)—O-{4-[3-oxo-3-(4-(3-trifluoromethylphenyl)piperazin-1-yl)-1-(E)-propen-1-yl]phenyl}-dihydroartemisinin]	91.1	–	–	–
CC1CCC2C(C)[C@@H](Oc3ccc(/C=C/C(=O)N4CCN(Cc5ccccc5)CC4)cc3)OC3OC4(C)CCC1C32OO4 (stereo partly drawn) [Example 29, (10S)—O-{4-[3-oxo-3-(4-benzylpiperazin-1-yl)-1-(E)-propen-1-yl]phenyl}-dihydroartemisinin]	15.6	–	–	–
CC1CCC2C(C)[C@@H](Oc3ccc(/C=C/C(=O)N4CCN(c5ccccn5)CC4)cc3)OC3OC4(C)CCC1C32OO4 (stereo partly drawn) [Example 30, (10S)—O-{4-[3-oxo-3-(4-(2-pyridyl)piperazin-1-yl)-1-(E)-propen-1-yl]phenyl}-dihydroartemisinin]	263	–	–	–

Compound	IC50 ([1]; MCF-7 cells) [nM]	IC50 [2, 3] [nM]	IC50 [1] [nM]	IC50 [2] [nM]
CC1CCC2C(C)[C@@H](Oc3ccc(C=CC(=O)Oc4ccc(/C=C/C(=O)N5CCN(c6ncccn6)CC5)cc4)cc3)OC3OC4(C)CCC1C32OO4 (stereo partly drawn) [Example 32, 4-[(10S)-dihydroartemisinin-10-O-yl]phenyl-acrylic acid-4-[3-oxo-3-(4-(2-pyrimidinyl)piperazin-1-yl)-1-(E)-propen-1-yl]phenyl ester]	408	–	–	–
CC1CCC2C(C)[C@@H](Oc3ccc(CC(=O)N4CCOCC4)cc3)OC3OC4(C)CCC1C32OO4 (stereo partly drawn) [Example 34, (10S)—O-{4-[2-(morpholin-4-yl)-2-oxoethyl]phenyl}-dihydroartemisinin]	7580	239	–	–
C[C@H]1[C@@H](Oc2ccc(CC(=O)N3CCCCC3)cc2)O[C@@H]2O[C@@]3(C)CC[C@H]4[C@H](C)CC[C@@H]1[C@@]24OO3 [Example 35, (10S)—O-{4-[2-(piperidin-1-yl)-2-oxoethyl]phenyl}-dihydroartemisinin]	1700	62.4	–	–
CC1CCN(C(=O)Cc2ccc(O[C@H]3OC4OC5(C)CCC6C(C)CCC(C3C)C46OO5)cc2)CC1 (stereo partly drawn) [Example 36, (10S)—O-{4-[2-(4-methylpiperidin-1-yl)-2-oxoethyl]phenyl}-dihydroartemisinin]	549	104	–	–
CC1CCCCN1C(=O)Cc1ccc(O[C@H]2O[C@@H]3O[C@@]4(C)CC[C@H]5[C@H](C)CC[C@@H]([C@H]2C)[C@@]35OO4)cc1 (stereo partly drawn) [Example 37, (10S)—O-{4-[2-(2-methylpiperidin-1-yl)-2-oxoethyl]phenyl}-dihydroartemisinin]	–	–	1250	–
CC1CC(C)CN(C(=O)Cc2ccc(O[C@H]3O[C@@H]4O[C@@]5(C)CC[C@H]6[C@H](C)CC[C@@H]([C@H]3C)[C@@]46OO5)cc2)C1 (stereo partly drawn) [Example 38, (10S)—O-{4-[2-(3,5-dimethylpiperidin-1-yl)-2-oxoethyl]phenyl}-dihydroartemisinin]	516	360	–	–
CC1CCC2C(C)[C@@H](Oc3ccc(CC(=O)N4CCC(N5CCCCC5)CC4)cc3)OC3OC4(C)CCC1C32OO4 (stereo partly drawn) [Example 39, (10S)—O-{4-[2-[4-(piperidin-1-yl)piperidin-1-yl]-2-oxoethyl]phenyl}-dihydroartemisinin]	1150	22.9	–	–
C[C@H]1[C@@H](Oc2ccc(CC(=O)N3CCN(c4ccccc4)CC3)cc2)O[C@@H]2O[C@@]3(C)CC[C@H]4[C@H](C)CC[C@@H]1[C@@]24OO3 [Example 40, (10S)—O-{4-[2-(4-phenylpiperazin-1-yl)-2-oxoethyl]phenyl}-dihydroartemisinin]	–	–	2660	79.1
COc1ccccc1N1CCN(C(=O)Cc2ccc(O[C@H]3OC4OC5(C)CCC6C(C)CCC(C3C)C46OO5)cc2)CC1 (stereo partly drawn) [Example 41, (10S)—O-{4-[2-[4-(2-methoxyphenyl)piperazin-1-yl]-2-oxoethyl]phenyl}-dihydroartemisinin]	790	29.8	–	–
CC1CCC2C(C)[C@@H](Oc3ccc(CC(=O)N4CCN(c5ccc(F)cc5)CC4)cc3)OC3OC4(C)CCC1C32OO4 (stereo partly drawn) [Example 42, (10S)—O-{4-[2-[4-(4-fluorophenyl)piperazin-1-yl]-2-oxoethyl]phenyl}-dihydroartemisinin]	1090	11.2	–	–
CC1CCC2C(C)[C@@H](Oc3ccc(CC(=O)N4CCN(C)CC4c4ccccc4)cc3)OC3OC4(C)CCC1C32OO4 (stereo partly drawn) [Example 43, (10S)—O-{4-[2-(4-methyl-2-phenylpiperazin-1-yl)-2-oxoethyl]phenyl}-dihydroartemisinin]	2290	1060	–	–
CC1CCC2C(C)[C@@H](Oc3ccc(CC(=O)N4CCN(C5CCCCC5)CC4)cc3)OC3OC4(C)CCC1C32OO4 (stereo partly drawn) [Example 46, (10S)—O-{4-[2-(4-cyclohexylpiperazin-1-yl)-2-oxoethyl]phenyl}-dihydroartemisinin]	1120	98	–	–
CC1CCC2C(C)[C@@H](Oc3ccc(CC(=O)NCc4ccccc4)cc3)OC3OC4(C)CCC1C32OO4 (stereo partly drawn) [Example 48, (10S)—O-[4-[2-(benzylamino)-2-oxoethyl]phenyl]-dihydroartemisinin]	1400	–	–	–
(10S)—O-{4-[2-[4-(pyridin-2-yl)piperazin-1-yl]-2-oxoethyl]phenyl}-dihydroartemisinin [Example 44]	–	–	1490	180
(10S)—O-{4-[2-[4-(pyrimidin-2-yl)piperazin-1-yl]-2-oxoethyl]phenyl}-dihydroartemisinin [Example 45]	1490	110	–	–

From patent publication US9718837B2, “Nitrogen-containing heterocyclic ring substituted dihydroartemisinin derivatives and use thereof” (Shenyang Pharmaceutical University, priority 2013, dated 2017)
